Measured values: DBAASP
Converted amounts (≈) assume the structure as drawn. Blank lines part the entries; values can stand above or below the molecule they belong to.

Legend:
Test in all cases: ≥ marks a high value that may be exact or a test limit, other limits are often not marked, values filed in µg/mL are converted to µM
[1] = test system: Proteus vulgaris
[2] = test system: Salmonella typhimurium
[3] = test system: Escherichia coli
[4] = test system: Listeria monocytogenes KCTC 3710
[5] = test system: Staphylococcus epidermidis
[6] = test system: Aspergillus fumigatus KCTC 6145
[7] = test system: Trichosporon beigelii
[8] = test system: Saccharomyces cerevisiae
[9] = test system: Fusarium verticillioides
[10] = test system: Escherichia coli O157:H7 ATCC 43895
[11] = test system: Botrytis cinerea
[12] = test system: Aspergillus flavus KCTC 9471
[13] = test system: Pseudomonas aeruginosa
[14] = test system: Bacillus subtilis
[15] = test system: Staphylococcus aureus
[16] = test system: Candida albicans KCTC 7270
[17] = test system: Staphylococcus aureus ATCC 43300
[18] = test system: Bacillus subtilis ATCC 6051
[19] = test system: Klebsiella pneumoniae ATCC BAA-2146
[20] = test system: Klebsiella pneumoniae
[21] = test system: Candida albicans ATCC 90028
[22] = test system: Klebsiella pneumoniae ATCC 700603
[23] = test system: Klebsiella pneumoniae ATCC 13883
[24] = test system: Acinetobacter baumannii ATCC 19606
[25] = test system: Escherichia coli ATCC 25922
[26] = test system: Pseudomonas aeruginosa ATCC 27853
[27] = test system: Cryptococcus neoformans ATCC 208821
[28] = test system: Acinetobacter baumannii
[29] = test system: Fusarium oxysporum f. sp. lycopersici ATCC 201829
[30] = test system: Pseudomonas syringae EPS 94
[31] = test system: Erwinia amylovora PMV 6076
[32] = test system: Aspergillus niger CECT 2694
[33] = test system: Xanthomonas vesicatoria 2133-2
[34] = test system: Penicillium expansum EPS 26
[35] = test system: Rhizopus stolonifer CECT 2344
[36] = test system: Staphylococcus aureus ATCC 6538P
[37] = test system: Escherichia coli K-12 594
[38] = test system: Staphylococcus aureus SR1550
[39] = test system: Streptococcus gordonii ATCC 10558
[40] = test system: Streptococcus mutans UA159
[41] = test system: Streptococcus sanguinis ATCC 49295
[42] = test system: Streptococcus mutans GS-5
[43] = test system: Aeromonas hydrophila
[44] = test system: Vibrio fluvialis
[45] = test system: Streptococcus pyogenes
[46] = test system: Vibrio alginolyticus
[47] = test system: Vibrio parahaemolyticus

Structure (SMILES): CC[C@H](C)[C@H](NC(=O)[C@H](CCCCN)NC(=O)[C@H](CO)NC(=O)[C@H](Cc1ccccc1)NC(=O)[C@H](CC(C)C)NC(=O)[C@H](CCCCN)NC(=O)[C@H](CCC(=O)O)NC(=O)[C@H](CC(C)C)NC(=O)[C@H](CCCN=C(N)N)NC(=O)[C@H](CCCCN)NC(=O)[C@H](Cc1ccccc1)NC(=O)[C@@H](NC(=O)[C@H](CCCCN)NC(=O)[C@H](CCCCN)NC(=O)[C@H](C)N)C(C)C)C(=O)N[C@@H](Cc1ccc(O)cc1)C(=O)N[C@@H](CC(N)=O)C(=O)N[C@@H](Cc1ccc(O)cc1)C(=O)N[C@@H](CCCCN)C(N)=O [AKKVFKRLEKLFSKIYNYK]
MIC [1]: 4.42 µM (≈ 10.6 µg/mL)
MIC [2]: 0.39 µM (≈ 0.937 µg/mL)
MIC [3]: 3.13 µM (≈ 7.52 µg/mL)
MIC [4]: 0.78 µM (≈ 1.87 µg/mL)
MIC [5]: 3.13 µM (≈ 7.52 µg/mL)
MIC [6]: ≥ 35.4 µM
MIC [7]: 1.56 µM (≈ 3.75 µg/mL)
MIC [8]: 25 µM (≈ 60.1 µg/mL)
MIC [9]: 12.5 µM (≈ 30 µg/mL)
MIC [10]: 3.13 µM (≈ 7.52 µg/mL)
MIC [11]: 6.25 µM (≈ 15 µg/mL)
MIC [12]: ≥ 50 µM
MIC [13]: 3.13 µM (≈ 7.52 µg/mL)
MIC [14]: 1.56 µM (≈ 3.75 µg/mL)
MIC [15]: 3.13 µM (≈ 7.52 µg/mL)
MIC [16]: 12.5 µM (≈ 30 µg/mL)

Structure (SMILES): CC(C)C[C@H](NC(=O)[C@H](CCCN=C(N)N)NC(=O)[C@H](CC(C)C)NC(=O)[C@H](CC(C)C)NC(=O)[C@H](CC(C)C)NC(=O)[C@H](CC(C)C)NC(=O)[C@H](CC(C)C)NC(=O)[C@H](CCCN=C(N)N)NC(=O)[C@H](CC(C)C)NC(=O)[C@@H](N)CCCN=C(N)N)C(=O)N[C@@H](CCCN=C(N)N)C(N)=O [RLRLLLLLRLR]
MIC [36]: 1.39 µM (≈ 2 µg/mL)
MIC [37]: 24.4 µM (≈ 35 µg/mL)
MIC [38]: 24.4 µM (≈ 35 µg/mL)

Structure (SMILES): CC(C)C[C@H](NC(=O)[C@H](CCCN=C(N)N)NC(=O)[C@H](Cc1ccccc1)NC(=O)[C@H](Cc1ccccc1)NC(=O)[C@@H](N)[C@@H](C)O)C(=O)N[C@@H](Cc1ccccc1)C(=O)N[C@@H](CC(N)=O)C(=O)N[C@@H](CCCN=C(N)N)C(=O)N[C@@H](CO)C(=O)N[C@@H](Cc1ccccc1)C(=O)N[C@H](C(=O)O)[C@@H](C)O [TFFRLFNRSFT]
MIC [39]: ≥ 178 µM
MIC [40]: ≥ 178 µM
MIC [41]: ≥ 178 µM
MIC [42]: ≥ 178 µM

Structure (SMILES): CC[C@H](C)[C@H](NC(=O)[C@H](CC(N)=O)NC(=O)[C@H](CC(=O)O)NC(=O)[C@H](Cc1ccc(O)cc1)NC(=O)[C@@H](NC(=O)[C@H](CCCCN)NC(=O)[C@H](Cc1cnc[nH]1)NC(=O)[C@H](CC(C)C)NC(=O)[C@H](CC(C)C)NC(=O)[C@H](Cc1ccccc1)NC(=O)[C@H](CC(N)=O)NC(=O)[C@@H](N)C(C)C)[C@@H](C)CC)C(=O)N[C@@H](CCCN=C(N)N)C(=O)N[C@@H](Cc1ccc(O)cc1)C(=O)N[C@@H](CO)C(=O)O [VNFLLHKIYDNIRYS]
MIC [3]: 4.12 µM (≈ 7.8 µg/mL)
MIC [43]: 8.23 µM (≈ 15.6 µg/mL)
MIC [44]: ≥ 132 µM
MIC [45]: ≥ 33 µM
MIC [46]: ≥ 132 µM
MIC [47]: ≥ 33 µM
MIC [15]: > 132 µM

Further lines, results first:

MIC [17]: 0.907 µM (≈ 2 µg/mL)
MIC [18]: 0.0567 µM (≈ 0.125 µg/mL)
MIC [19]: 0.454 µM (≈ 0.999 µg/mL)
MIC [20]: 7.26 µM (≈ 16 µg/mL)
MIC [21]: 3.63 µM (≈ 7.99 µg/mL)
MIC [22]: 0.907 µM (≈ 2 µg/mL)
MIC [23]: 0.113 µM (≈ 0.25 µg/mL)
MIC [24]: 0.113 µM (≈ 0.25 µg/mL)
MIC [25]: 0.0567 µM (≈ 0.125 µg/mL)
MIC [26]: 0.454 µM (≈ 0.999 µg/mL)
MIC [27]: 0.454 µM (≈ 0.999 µg/mL)
MIC [13]: 0.907 µM (≈ 2 µg/mL)
MIC [28]: 0.113 µM (≈ 0.25 µg/mL)
Structure (SMILES): CC[C@H](C)[C@@H]1NC(=O)CNC(=O)[C@H](CCCN=C(N)N)NC(=O)[C@H](Cc2ccc(O)cc2)NC(=O)[C@H](C)NC(=O)[C@H](C(C)C)NC(=O)[C@H](CCCN=C(N)N)NC(=O)[C@H](Cc2ccccc2)NC(=O)[C@@H](NC(=O)[C@H](Cc2c[nH]c3ccccc23)NC(=O)[C@@H](N)CCCCN)CSSC[C@@H](C(=O)N[C@@H](CCCN=C(N)N)C(=O)O)NC(=O)[C@H](CCCN=C(N)N)NC(=O)[C@H](CCCN=C(N)N)NC(=O)[C@H](Cc2ccc(O)cc2)NC(=O)[C@H](C)NC1=O [KWCFRVAYRGIAYRRCR]

MIC [29]: 0.424 µM (≈ 0.569 µg/mL)
MIC [30]: 5.92 µM (≈ 7.94 µg/mL)
MIC [31]: 5.92 µM (≈ 7.94 µg/mL)
MIC [32]: 22.4 µM (≈ 30 µg/mL)
MIC [33]: 11 µM (≈ 14.7 µg/mL)
MIC [34]: ≥ 35.4 µM
MIC [35]: ≥ 35.4 µM
Structure (SMILES): CC[C@H](C)[C@H](NC(=O)[C@H](CCCCN)NC(=O)[C@H](CCCCN)NC(=O)[C@H](Cc1ccccc1)NC(=O)[C@H](CC(C)C)NC(=O)[C@H](CCCCN)NC(=O)[C@@H](N)CC(C)C)C(=O)N[C@@H](CC(C)C)C(=O)N[C@@H](CCCCN)C(=O)N[C@H](C(=O)N[C@@H](CC(C)C)C(N)=O)C(C)C [LKLFKKILKVL]
